In the assay the target is T1, hGLP1 receptor (Homo sapiens, UniProt P43220).
T1 construct: expressed in transfected cells; host or cells: HEK (human embryonic kidney) cells co-expressing hGLP1 receptor and CRE-Luciferase
The assay can be described thus: cAMP HTRF agonist assay in HEK cells co-expressing hGLP1 receptor and CRE-Luciferase. Format: cell-based. How it is done: Human embryonic kidney cells (HEK) co-expressing the hGLP1 receptor and CRE-Luciferase construct were used to determine agonist potency in this assay. The cells were thawed briefly at 37° C., transferred to a sterile tube and re-suspended in complete media at 37° C. Cells were centrifuged at 1000 rpm for 5 minutes and cells collected; cells were re-suspended in assay buffer consisting of DPBS (GIBCO) with 500 μM of the phosphodiesterase inhibitor IBMX. […] The optimal cell density was determined to be 1000 cells/well; cells were added to wells in 384-well plates containing appropriate pre-prepared dilutions of compounds (test peptides or reference compound exendin-4), sealed and incubated with CO2 for 30 min. Test peptide solutions were diluted from 10 mM stock solutions; for most peptides an initial run was performed in duplicate from a maximal concentration of 1.0 μM, with 11 concentrations tested for each peptide using serial 1:3 dilution from this maximal concentration. […] The agonist assay was a homogeneous time-resolved fluorescence (HTRF) assay (Cisbio).
Following incubation of the cells for 30 minutes with test or reference peptides, 5 μL of the cAMP acceptor cAMP-d2, prepared previously as a working solution from frozen stock (1:20 dilution), was added to each well of the assay plate, along with 5 μL of anti-cAMP antibody-cryptate working solution (diluted 1:20 from frozen stock). The wells were incubated for 1 hour at room temperature, and fluorescence was then read at 665 and 615 nm with an Envision reader with TRF laser. Data were saved and analyzed using Prism software (GraphPad). Concentration-response analysis was performed using 4-parameter logistic fits of the resulting data, and EC50 values obtained for each test and reference compound.
Background: Time-resolved FRET reads energy transfer from a long-lived donor to a nearby acceptor.

[1] abbreviates: cAMP EC50, nM (0.1% albumin), Table 3, 0.1% albumin.
Where [2] appears, read: cAMP EC50, nM (0.1% albumin), Table 1, 0.1% albumin.
The mark [3] stands for this setting: cAMP EC50, nM (0.1% albumin), Table 6, 0.1% albumin.
Setting [4] is: cAMP EC50, nM (0.1% albumin), Table 2, 0.1% albumin.

This is an account of results in patent US20230015478A1, “GLP-1 RECEPTOR AGONISTS HAVING IMPROVED PHARMACOLOGICAL AND DRUG DELIVERY PROPERTIES” (priority 2021, published 2023).

The term EC50 denotes the concentration giving half of the maximal effect.

Where two headings read alike, the source gives them in different places. Numbered stars: 1 amine (or outer) side, 2 acyl side, 3 side chain; on linkers, the order of the positions; unused ones are H or OH. Square brackets hold non-standard residues; d marks the D form. Side chains are listed from the residue outwards. Peptide text beside a SMILES is read from it. * marks the point of attachment. Phe(2-NO2) = N[C@@H](Cc1ccccc1[N+](=O)[O-])C(=O)O; Phe(F5) = N[C@@H](Cc1c(F)c(F)c(F)c(F)c1F)C(=O)O; Bip = N[C@@H](Cc1ccc(-c2ccccc2)cc1)C(=O)O; C18 diacid = O=C(O)CCCCCCCCCCCCCCCCC(=O)*; αMePhe(2-F) = C[C@](N)(Cc1ccccc1F)C(=O)O; γGlu = O=C(O)[C@H](CCC(=O)[*:2])N[*:1]; Phe(2-F) = N[C@@H](Cc1ccccc1F)C(=O)O; αMeP = C[C@@]1(C(=O)O)CCCN1; AEEA = NCCOCCOCC(=O)O; Aib = CC(C)(N)C(=O)O

T1 sequence (P43220 24-463): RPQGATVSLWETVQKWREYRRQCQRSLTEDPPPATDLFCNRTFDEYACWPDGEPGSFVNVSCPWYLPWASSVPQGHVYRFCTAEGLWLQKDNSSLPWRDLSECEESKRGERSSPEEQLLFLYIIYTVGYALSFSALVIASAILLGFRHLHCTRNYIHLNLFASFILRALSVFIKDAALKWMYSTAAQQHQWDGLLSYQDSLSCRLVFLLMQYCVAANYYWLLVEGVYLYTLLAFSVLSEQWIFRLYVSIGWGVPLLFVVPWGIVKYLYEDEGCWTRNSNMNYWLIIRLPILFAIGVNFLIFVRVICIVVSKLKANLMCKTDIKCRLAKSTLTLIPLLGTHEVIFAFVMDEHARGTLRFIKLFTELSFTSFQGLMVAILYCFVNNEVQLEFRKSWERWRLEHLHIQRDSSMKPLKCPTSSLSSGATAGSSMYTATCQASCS

`C[C@H](NC(=O)[C@H](CCC(=O)O)NC(=O)C(C)(C)NC(=O)[C@@H](N)Cc1c[nH]cn1)C(=O)N[C@H](C(=O)N[C@@H](Cc1ccccc1F)C(=O)N[C@H](C(=O)N[C@@H](CO)C(=O)N[C@@H](CC(=O)O)C(=O)N[C@@H](Cc1ccc(-c2ccccc2)cc1)C(=O)N[C@@H](Cc1ccc(-c2ccccc2)cc1)C(N)=O)[C@@H](C)O)[C@@H](C)O` [3-23, H2N-His-Aib-Glu-Ala-Thr-Phe(2F)-Thr-Ser-Asp-Bip-Bip-C(O)NH2] (H-H[Aib]EAT[Phe(2-F)]TSD[Bip][Bip]-NH2): the EC50 (Table 2, cell marked (0% albumin), read-out: cAMP EC50, nM (0% albumin)) turned out to be 347 nM.
As to `C[C@@H](O)[C@H](NC(=O)CNC(=O)[C@H](CCC(=O)O)NC(=O)C(C)(C)NC(=O)[C@@H](N)Cc1c[nH]cn1)C(=O)N[C@@](C)(Cc1ccccc1F)C(=O)N[C@H](C(=O)NC(C)(C)C(=O)N[C@@H](CC(=O)O)C(=O)N[C@@H](Cc1ccc(-c2ccccc2)cc1)C(=O)N[C@@H](Cc1ccc(-c2ccccc2)cc1)C(N)=O)[C@@H](C)O` [3-36, H2N-His-Aib-Glu-Gly-Thr-αMePhe(2-F)-Thr-Aib-Asp-Bip-Bip-C(O)NH2] (H-H[Aib]EGT[αMePhe(2-F)]T[Aib]D[Bip][Bip]-NH2), the EC50 under setting [1] stood at 150 nM.
With `C[C@@H](O)[C@H](NC(=O)CNC(=O)[C@H](CCC(=O)O)NC(=O)C(C)(C)NC(=O)[C@@H](N)Cc1c[nH]cn1)C(=O)N[C@@H](Cc1ccc(O)cc1)C(=O)N[C@H](C(=O)N[C@@H](CO)C(=O)N[C@@H](CC(=O)O)C(=O)N[C@@H](Cc1ccc(-c2ccccc2)cc1)C(=O)N[C@@H](Cc1ccc(-c2ccccc2)cc1)C(N)=O)[C@@H](C)O` [3-12, H2N-His-Aib-Glu-Gly-Thr-Tyr-Thr-Ser-Asp-Bip-Bip-C(O)NH2] (H-H[Aib]EGTYTSD[Bip][Bip]-NH2), it took 7.3 nM to reach a half-maximal effect under setting [2] (EC50).
In turn, `C[C@@H](O)[C@H](NC(=O)CNC(=O)[C@H](CCC(=O)O)NC(=O)C(C)(C)NC(=O)[C@@H](N)Cc1c[nH]cn1)C(=O)N[C@@](C)(Cc1ccccc1F)C(=O)N[C@H](C(=O)N[C@@H](CO)C(=O)N[C@@H](CC(=O)O)C(=O)N[C@@H](Cc1ccc(-c2ccccc2)cc1)C(=O)N[C@@H](Cc1ccc(-c2ccccc2)cc1)C(=O)NC(C)(C)C(=O)NCC(=O)NCC(=O)N[C@@H](CCCCN)C(N)=O)[C@@H](C)O` [4-33, H2N-His-Aib-Glu-Gly-Thr-α-MePhe(2F)-Thr-Ser-Asp-Bip-Bip-Aib-(Gly)2-Lys-NH2] (H-H[Aib]EGT[αMePhe(2-F)]TSD[Bip][Bip][Aib]GGK-NH2) came in with a concentration for a half-maximal effect (EC50) under setting [3] of 33.7 nM.
As for `C[C@@H](O)[C@H](NC(=O)CNC(=O)[C@H](CCC(=O)O)NC(=O)[C@]1(C)CCCN1C(=O)[C@@H](N)Cc1c[nH]cn1)C(=O)N[C@@](C)(Cc1ccccc1F)C(=O)N[C@H](C(=O)N[C@@H](CO)C(=O)N[C@@H](CC(=O)O)C(=O)N[C@@H](Cc1ccc(-c2ccccc2)cc1)C(=O)N[C@@H](Cc1ccc(-c2ccccc2)cc1)C(N)=O)[C@@H](C)O` [3-40, H2N-His-α-MePro-Glu-Gly-Thr-α-MePhe(2-F)-Thr-Ser-Asp-Bip-Bip-C(O)NH2] (H-H[αMeP]EGT[αMePhe(2-F)]TSD[Bip][Bip]-NH2), the half-maximal effective concentration (EC50) (cAMP EC50, nM (0.1% albumin), Table 4, 0.1% albumin) worked out at 0.003 nM. Also, the “potency compared with the parent peptide analog (1-2)” value (replacement of Aib2, in words) was “significantly greater potency”.
As for `C[C@H](NC(=O)[C@H](CO)NC(=O)[C@@H](NC(=O)[C@H](Cc1ccccc1F)NC(=O)[C@@H](NC(=O)CNC(=O)[C@H](CCC(=O)O)NC(=O)C(C)(C)NC(=O)[C@@H](N)Cc1c[nH]cn1)[C@@H](C)O)[C@@H](C)O)C(=O)N[C@@H](Cc1ccc(-c2ccccc2)cc1)C(=O)N[C@@H](Cc1ccc(-c2ccccc2)cc1)C(N)=O` [3-27, H2N-His-Aib-Glu-Gly-Thr-Phe(2-F)-Thr-Ser-Ala-Bip-Bip-C(O)NH2] (H-H[Aib]EGT[Phe(2-F)]TSA[Bip][Bip]-NH2), the EC50 under setting [4] was found to be 67 nM.
Under setting [3], `C[C@@H](O)[C@H](NC(=O)CNC(=O)[C@H](CCC(=O)O)NC(=O)C(C)(C)NC(=O)[C@@H](N)Cc1c[nH]cn1)C(=O)N[C@@](C)(Cc1ccccc1F)C(=O)N[C@H](C(=O)N[C@@H](CO)C(=O)N[C@@H](CC(=O)O)C(=O)N[C@@H](Cc1ccc(-c2ccccc2)cc1)C(=O)N[C@@H](Cc1ccc(-c2ccccc2)cc1)C(=O)N[C@@H](CCCCNC(=O)COCCOCCNC(=O)COCCOCCNC(=O)CC[C@H](NC(=O)CCCCCCCCCCCCCCCCC(=O)O)C(=O)O)C(N)=O)[C@@H](C)O` [4-49, H2N-His-Aib-Glu-Gly-Thr-α-MePhe(2-F)-Thr-Ser-Asp-Bip-Bip-C(O)NH-RY11] (H-H[Aib]EGT[αMePhe(2-F)]TSD[Bip][Bip]K([AEEA-AEEA-γGlu-C18 diacid])-NH2) gave an EC50 of 5 nM.
Turning to `C[C@H](NC(=O)[C@H](CC(=O)O)NC(=O)[C@H](CO)NC(=O)[C@@H](NC(=O)[C@H](Cc1ccccc1F)NC(=O)[C@@H](NC(=O)CNC(=O)[C@H](CCC(=O)O)NC(=O)C(C)(C)NC(=O)[C@@H](N)Cc1c[nH]cn1)[C@@H](C)O)[C@@H](C)O)C(=O)N[C@@H](Cc1ccc(-c2ccccc2)cc1)C(N)=O` [3-28, H2N-His-Aib-Glu-Gly-Thr-Phe(2-F)-Thr-Ser-Asp-Ala-Bip-C(O)NH2] (H-H[Aib]EGT[Phe(2-F)]TSDA[Bip]-NH2), the EC50 under setting [4] was > 1000 nM.
As for `C[C@@H](O)[C@H](NC(=O)CNC(=O)[C@H](CCC(=O)O)NC(=O)C(C)(C)NC(=O)[C@@H](N)Cc1c[nH]cn1)C(=O)N[C@@H](Cc1c(F)c(F)c(F)c(F)c1F)C(=O)N[C@H](C(=O)N[C@@H](CO)C(=O)N[C@@H](CC(=O)O)C(=O)N[C@@H](Cc1ccc(-c2ccccc2)cc1)C(=O)N[C@@H](Cc1ccc(-c2ccccc2)cc1)C(N)=O)[C@@H](C)O` [3-10, H2N-His-Aib-Glu-Gly-Thr-Phe(2,3,4,5,6-F)-Thr-Ser-Asp-Bip-Bip-C(O)NH2] (H-H[Aib]EGT[Phe(F5)]TSD[Bip][Bip]-NH2), the EC50 under setting [2] is 1.8 nM.
Still for that read-out and setting: for `C[C@@H](O)[C@H](NC(=O)CNC(=O)[C@H](CCC(=O)O)NC(=O)C(C)(C)NC(=O)[C@@H](N)Cc1c[nH]cn1)C(=O)N[C@@H](Cc1ccccc1[N+](=O)[O-])C(=O)N[C@H](C(=O)N[C@@H](CO)C(=O)N[C@@H](CC(=O)O)C(=O)N[C@@H](Cc1ccc(-c2ccccc2)cc1)C(=O)N[C@@H](Cc1ccc(-c2ccccc2)cc1)C(N)=O)[C@@H](C)O` [3-5, H2N-His-Aib-Glu-Gly-Thr-Phe(2-NO2)-Thr-Ser-Asp-Bip-Bip-C(O)NH2] (H-H[Aib]EGT[Phe(2-NO2)]TSD[Bip][Bip]-NH2) the value was 6.67 nM.
Under setting [1], `C[C@@H](O)[C@H](NC(=O)[C@](C)(Cc1ccccc1F)NC(=O)C(C)(C)NC(=O)CNC(=O)[C@H](CCC(=O)O)NC(=O)C(C)(C)NC(=O)[C@@H](N)Cc1c[nH]cn1)C(=O)N[C@@H](CO)C(=O)N[C@@H](CC(=O)O)C(=O)N[C@@H](Cc1ccc(-c2ccccc2)cc1)C(=O)N[C@@H](Cc1ccc(-c2ccccc2)cc1)C(N)=O` [3-33, H2N-His-Aib-Glu-Gly-Aib-αMePhe(2-F)-Thr-Ser-Asp-Bip-Bip-C(O)NH2] (H-H[Aib]EG[Aib][αMePhe(2-F)]TSD[Bip][Bip]-NH2) had an EC50 of 7.3 nM.
Under setting [2], `C[C@@H](O)[C@H](NC(=O)CNC(=O)[C@H](CCC(=O)O)NC(=O)C(C)(C)NC(=O)[C@@H](N)Cc1c[nH]cn1)C(=O)N[C@@H](Cc1ccc(-c2ccccc2)cc1)C(=O)N[C@H](C(=O)N[C@@H](CO)C(=O)N[C@@H](CC(=O)O)C(=O)N[C@@H](Cc1ccc(-c2ccccc2)cc1)C(=O)N[C@@H](Cc1ccc(-c2ccccc2)cc1)C(N)=O)[C@@H](C)O` [3-15, H2N-His-Aib-Glu-Gly-Thr-Bip-Thr-Ser-Asp-Bip-Bip-C(O)NH2] (H-H[Aib]EGT[Bip]TSD[Bip][Bip]-NH2) showed an EC50 of 26.2 nM.
